Data: patent US12528814B2, “Bifunctional degraders of interleukin-1 receptor-associated kinases and therapeutic use thereof” (NURIX THERAPEUTICS, INC., priority 2020, dated 2026)

What was measured:
IRAK4 [1] = target: T1, IRAK4 (Homo sapiens (Human), UniProt Q9NWZ3); test: IRAK4 Degradation HiBiT Assay; settings: multiple runs, HiBiT-tagged Jurkat cells, 4 hrs; for DC50: read-out: Cellular IRAK4 HiBiT: DC50; for Dmax: Jurkat, read-out: Cellular IRAK4 HiBiT: Dmax, Table 5
Target sequence in this assay (Q9NWZ3 whole entry): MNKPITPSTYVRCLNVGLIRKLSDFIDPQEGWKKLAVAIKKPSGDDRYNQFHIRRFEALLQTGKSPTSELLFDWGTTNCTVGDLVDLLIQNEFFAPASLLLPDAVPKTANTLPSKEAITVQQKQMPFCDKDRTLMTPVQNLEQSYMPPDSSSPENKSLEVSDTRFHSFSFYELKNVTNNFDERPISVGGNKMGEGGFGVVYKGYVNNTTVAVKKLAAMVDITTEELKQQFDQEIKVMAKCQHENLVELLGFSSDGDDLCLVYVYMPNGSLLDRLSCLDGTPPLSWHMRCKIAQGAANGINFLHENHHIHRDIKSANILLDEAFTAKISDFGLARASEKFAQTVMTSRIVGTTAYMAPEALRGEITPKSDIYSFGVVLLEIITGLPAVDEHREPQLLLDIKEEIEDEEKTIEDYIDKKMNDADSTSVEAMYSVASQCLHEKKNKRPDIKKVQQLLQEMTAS

IRAK4 [2] = target: T1, IRAK4; test: IRAK4 Biochemical HTRF Kinase Assay; settings: Table 5; multiple runs; read-out: IRAK4 HTRF biochemical: IC50
Summary of the method: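 IC50 values derive from non-linear regression of sixteen concentrations in duplicate. Kinase reaction ran 90 min at ambient temperature after adding 5 μM STK-S1 substrate, 10 mM ATP and 10 mM MgCl2 (reaction-solution levels, pre-dilution to 10 μl); phospho-peptide detected by HTRF after 60 min.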
Target sequence in this assay (Q9NWZ3 whole entry, species assumed): as the sequence (Q9NWZ3 whole entry) above

Row | Compound | DC50 (IRAK4 [1]; Table 5) [nM] | IC50 (IRAK4 [2]) [nM] | Dmax (IRAK4 [1]) [%] | Cellular IRAK4 HiBiT: Dmax (IRAK4 [1]; Table 5) [%]
1 | CNc1cc(-c2ccc3cc(C#N)cnn23)ncc1-c1nnc(N2CCCC3(CN(C(=O)c4ccc5c(c4)C(=O)N(C4CCC(=O)NC4=O)C5=O)C3)C2)s1 (stereo not shown) [Example 124, 7-(5-(5-(2-(2-(2,6-dioxopiperidin-3-yl)-1,3-dioxoisoindoline-5-carbonyl)-2,6-diazaspiro[3.5]nonan-6-yl)-1,3,4-thiadiazol-2-yl)-4-(methylamino)pyridin-2-yl)pyrrolo[1,2-b]pyridazine-3-carbonitrile] | > 9980 | 1.9 |  | 
2 | CNc1cc(-c2ccc3cc(C#N)cnn23)ncc1-c1nnc(C2CCC(NC(=O)Cn3ccc(C(=O)N[C@H](C(=O)N4C[C@H](O)C[C@H]4C(=O)N[C@@H](C)c4ccc(-c5scnc5C)cc4)C(C)(C)C)n3)CC2)s1 (stereo partly drawn) [Example 125, 1-(2-(((1r,4S)-4-(5-(6-(3-cyanopyrrolo[1,2-b]pyridazin-7-yl)-4-(methylamino)pyridin-3-yl)-1,3,4-thiadiazol-2-yl)cyclohexyl)amino)-2-oxoethyl)-N—((S)-1-((2S,4R)-4-hydroxy-2-(((S)-1-(4-(4-methylthiazol-5-yl)phenyl)ethyl)carbamoyl)pyrrolidin-1-yl)-3,3-dimethyl-1-oxobutan-2-yl)-1H-pyrazole-3-carboxamide] | 166 | 1.7 | 116 | 
3 | CNc1cc(-c2ccc3cc(C#N)cnn23)ncc1-c1nnc([C@H]2CC[C@@H](NC(=O)CN3CCN(c4ccc5c(c4)C(=O)N(C4CCC(=O)NC4=O)C5=O)CC3)CC2)s1 (stereo partly shown) [Example 126, N-((1s,4s)-4-(5-(6-(3-cyanopyrrolo[1,2-b]pyridazin-7-yl)-4-(methylamino)pyridin-3-yl)-1,3,4-thiadiazol-2-yl)cyclohexyl)-2-(4-(2-(2,6-dioxopiperidin-3-yl)-1,3-dioxoisoindolin-5-yl)piperazin-1-yl)acetamide] | 63.1 | 0.9 | 111 | 
4 | CNc1cc(-c2ccc3cc(C#N)cnn23)ncc1-c1nnc([C@H]2CC[C@@H](NC(=O)CN3CCC4(CC3)CN(c3ccc5c(c3)C(=O)N(C3CCC(=O)NC3=O)C5=O)C4)CC2)s1 (stereo partly shown) [Example 127, N-((1s,4s)-4-(5-(6-(3-cyanopyrrolo[1,2-b]pyridazin-7-yl)-4-(methylamino)pyridin-3-yl)-1,3,4-thiadiazol-2-yl)cyclohexyl)-2-(2-(2-(2,6-dioxopiperidin-3-yl)-1,3-dioxoisoindolin-5-yl)-2,7-diazaspiro[3.5]nonan-7-yl)acetamide] | 187 | 0.8 | 58 | 
5 | CNc1cc(-c2ccc3cc(C#N)cnn23)ncc1-c1nnc(C23CCC(NC(=O)CCC(=O)N[C@H](C(=O)N4C[C@H](O)C[C@H]4C(=O)N[C@@H](C)c4ccc(-c5scnc5C)cc4)C(C)(C)C)(CC2)CC3)s1 [Example 128, N1-(4-(5-(6-(3-cyanopyrrolo[1,2-b]pyridazin-7-yl)-4-(methylamino)pyridin-3-yl)-1,3,4-thiadiazol-2-yl)bicyclo[2.2.2]octan-1-yl)-N4—((S)-1-((2S,4R)-4-hydroxy-2-(((S)-1-(4-(4-methylthiazol-5-yl)phenyl)ethyl)carbamoyl)pyrrolidin-1-yl)-3,3-dimethyl-1-oxobutan-2-yl)succinamide] | 432 | 1.7 | 139 | 
6 | CNc1cc(-c2ccc3cc(C#N)cnn23)ncc1-c1nnc(C23CCC(NC(=O)CCOCCC(=O)N[C@H](C(=O)N4C[C@H](O)C[C@H]4C(=O)NCc4ccc(-c5scnc5C)cc4)C(C)(C)C)(CC2)CC3)s1 [Example 129] | 356 | 1.2 | 115 | 
7 | CNc1cc(-c2ccc3cc(C#N)cnn23)ncc1-c1nnc(C23CCC(NC(=O)[C@H]4CC[C@H](C(=O)N[C@H](C(=O)N5C[C@H](O)C[C@H]5C(=O)NCc5ccc(-c6scnc6C)cc5)C(C)(C)C)CC4)(CC2)CC3)s1 [Example 130, (1S,4r)-N1-(4-(5-(6-(3-cyanopyrrolo[1,2-b]pyridazin-7-yl)-4-(methylamino)pyridin-3-yl)-1,3,4-thiadiazol-2-yl)bicyclo[2.2.2]octan-1-yl)-N4—((S)-1-((2S,4R)-4-hydroxy-2-((4-(4-methylthiazol-5-yl)benzyl)carbamoyl)pyrrolidin-1-yl)-3,3-dimethyl-1-oxobutan-2-yl)cyclohexane-1,4-dicarboxamide] | 126 | 1.8 |  | 110
8 | CNc1cc(-c2ccc3cc(C#N)cnn23)ncc1-c1nnc(C23CCC(NC(=O)CCCCCC(=O)N[C@H](C(=O)N4C[C@H](O)C[C@H]4C(=O)N[C@@H](C)c4ccc(-c5scnc5C)cc4)C(C)(C)C)(CC2)CC3)s1 [Example 131, N1-(4-(5-(6-(3-cyanopyrrolo[1,2-b]pyridazin-7-yl)-4-(methylamino)pyridin-3-yl)-1,3,4-thiadiazol-2-yl)bicyclo[2.2.2]octan-1-yl)-N7-((S)-1-((2S,4R)-4-hydroxy-2-(((S)-1-(4-(4-methylthiazol-5-yl)phenyl)ethyl)carbamoyl)pyrrolidin-1-yl)-3,3-dimethyl-1-oxobutan-2-yl)heptanediamide] | 124 | 2.1 | 109 | 
9 | CNc1cc(-c2ccc3cc(C#N)cnn23)ncc1-c1nnc(N2CCN(C3CCN(C(=O)c4ccc(C(=O)NC5CCC(=O)NC5=O)cc4)CC3)CC2)s1 (stereo not shown) [Example 132, 4-(4-(4-(5-(6-(3-cyanopyrrolo[1,2-b]pyridazin-7-yl)-4-(methylamino)pyridin-3-yl)-1,3,4-thiadiazol-2-yl)piperazin-1-yl)piperidine-1-carbonyl)-N-(2,6-dioxopiperidin-3-yl)benzamide] | > 9980 | 0.6 |  | 
10 | CNc1cc(-c2ccc3cc(C#N)cnn23)ncc1-c1nnc([C@H]2CC[C@@H](NC(=O)C3CCN(c4ccc5c(c4)C(=O)N(C4CCC(=O)NC4=O)C5=O)CC3)CC2)s1 (stereo partly shown) [Example 133, N-((1s,4s)-4-(5-(6-(3-cyanopyrrolo[1,2-b]pyridazin-7-yl)-4-(methylamino)pyridin-3-yl)-1,3,4-thiadiazol-2-yl)cyclohexyl)-1-(2-(2,6-dioxopiperidin-3-yl)-1,3-dioxoisoindolin-5-yl)piperidine-4-carboxamide] | 51.4 | 0.9 | 111 | 
11 | CNc1cc(-c2ccc3cc(C#N)cnn23)ncc1-c1nnc(C23CCC(NC(=O)C4CCN(c5ccc6c(c5)C(=O)N(C5CCC(=O)NC5=O)C6=O)CC4)(CC2)CC3)s1 (stereo not shown) [Example 134, N-(4-(5-(6-(3-cyanopyrrolo[1,2-b]pyridazin-7-yl)-4-(methylamino)pyridin-3-yl)-1,3,4-thiadiazol-2-yl)bicyclo[2.2.2]octan-1-yl)-1-(2-(2,6-dioxopiperidin-3-yl)-1,3-dioxoisoindolin-5-yl)piperidine-4-carboxamide] | 64.1 | 0.9 | 103 | 

Further lines, with some results ahead:

Row | DC50 (IRAK4 [1]; Table 5) [nM] | IC50 (IRAK4 [2]) [nM] | Dmax (IRAK4 [1]) [%] | Compound | Cellular IRAK4 HiBiT: Dmax (IRAK4 [1]; Table 5) [%]
12 | 774 | 1 | 46 | CNc1cc(-c2ccc3cc(C#N)cnn23)ncc1-c1nnc([C@H]2CC[C@@H](NC(=O)C3CCN(c4cccc5c4C(=O)N(C4CCC(=O)NC4=O)C5=O)CC3)CC2)s1 (stereo partly shown) [Example 135, N-((1s,4s)-4-(5-(6-(3-cyanopyrrolo[1,2-b]pyridazin-7-yl)-4-(methylamino)pyridin-3-yl)-1,3,4-thiadiazol-2-yl)cyclohexyl)-1-(2-(2,6-dioxopiperidin-3-yl)-1,3-dioxoisoindolin-4-yl)piperidine-4-carboxamide] | 
13 | 19.1 | 22.6 | 108 | CNc1cc(-c2ccc3cc(C#N)cnn23)ncc1-c1nnc([C@H]2CC[C@H](N(C)C(=O)CN3CCN(c4ccc5c(c4)C(=O)N(C4CCC(=O)NC4=O)C5=O)CC3)CC2)s1 (stereo partly shown) [Example 137, N-((1r,4r)-4-(5-(6-(3-cyanopyrrolo[1,2-b]pyridazin-7-yl)-4-(methylamino)pyridin-3-yl)-1,3,4-thiadiazol-2-yl)cyclohexyl)-2-(4-(2-(2,6-dioxopiperidin-3-yl)-1,3-dioxoisoindolin-5-yl)piperazin-1-yl)-N-methylacetamide] | 
14 | 65.5 | 0.8 | 116 | CNc1cc(-c2ccc3cc(C#N)cnn23)ncc1-c1nnc([C@H]2CC[C@H](NC(=O)C3CN(C4CCN(c5ccc6c(c5)C(=O)N(C5CCC(=O)NC5=O)C6=O)CC4)C3)CC2)s1 (stereo partly shown) [Example 138, N-((1r,4r)-4-(5-(6-(3-cyanopyrrolo[1,2-b]pyridazin-7-yl)-4-(methylamino)pyridin-3-yl)-1,3,4-thiadiazol-2-yl)cyclohexyl)-1-(1-(2-(2,6-dioxopiperidin-3-yl)-1,3-dioxoisoindolin-5-yl)piperidin-4-yl)azetidine-3-carboxamide] | 
15 | 10.6 | 0.9 | 24 | CNc1cc(-c2ccc3cc(C#N)cnn23)ncc1-c1nnc([C@H]2CC[C@H](NC(=O)C3CCN(c4cccc5c4C(=O)N(C4CCC(=O)NC4=O)C5=O)CC3)CC2)s1 (stereo partly shown) [Example 139, N-((1r,4r)-4-(5-(6-(3-cyanopyrrolo[1,2-b]pyridazin-7-yl)-4-(methylamino)pyridin-3-yl)-1,3,4-thiadiazol-2-yl)cyclohexyl)-1-(2-(2,6-dioxopiperidin-3-yl)-1,3-dioxoisoindolin-4-yl)piperidine-4-carboxamide] | 
16 | 88.9 | 2.3 | 111 | CNc1cc(-c2ccc3cc(C#N)cnn23)ncc1-c1nnc(C23CCC(NC(=O)C[C@H](NC(=O)[C@@H]4C[C@@H](O)CN4C(=O)[C@@H](NC(=O)C4(F)CC4)C(C)(C)C)c4ccc(-c5scnc5C)cc4)(CC2)CC3)s1 [Example 140, (2S,4R)—N—((S)-3-((4-(5-(6-(3-cyanopyrrolo[1,2-b]pyridazin-7-yl)-4-(methylamino)pyridin-3-yl)-1,3,4-thiadiazol-2-yl)bicyclo[2.2.2]octan-1-yl)amino)-1-(4-(4-methylthiazol-5-yl)phenyl)-3-oxopropyl)-1-((S)-2-(1-fluorocyclopropane-1-carboxamido)-3,3-dimethylbutanoyl)-4-hydroxypyrrolidine-2-carboxamide] | 
